Laboratory results as given in ChEMBL document CHEMBL1201862, “PubChem BioAssay data set” (2004).
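Interpolation was linear, between the two tested concentrations surrounding the appropriate level; five concentrations were tested over 48 hours in 96-well plates. GI50: concentration for 50% inhibition of growth.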 Activity calls are given as the source filed them. Cut-off read from the data, not from the text of the source: active = GI50 up to about 1.1 µM and inactive = higher.

Columns and labels:
Assay in all cases: growth of human tumour cells (NCI), 48 h
UACC-257 = system: UACC-257
SK-MEL-5 = system: SK-MEL-5
NCI-H460 = system: NCI-H460
KM12 = system: KM12
SR = system: SR
A498 = system: A498
SNB-75 = system: SNB-75
DU-145 = system: DU-145
HCC 2998 = system: HCC 2998
ACHN = system: ACHN
TK-10 = system: TK-10
RXF 393 = system: RXF 393
SN12C = system: SN12C
MDA-MB-435 = system: MDA-MB-435
NCI-H226 = system: NCI-H226
OVCAR-8 = system: OVCAR-8
LOX IMVI = system: LOX IMVI
MDA-N = system: MDA-N
SF-295 = system: SF-295
OVCAR-3 = system: OVCAR-3

Row | SMILES | GI50 (UACC-257) | GI50 (SK-MEL-5) | GI50 (NCI-H460) | GI50 (KM12) | GI50 (SR) | GI50 (A498) | GI50 (SNB-75) | GI50 (DU-145) | GI50 (HCC 2998) | GI50 (ACHN) | GI50 (TK-10) | GI50 (RXF 393) | GI50 (SN12C) | GI50 (MDA-MB-435) | GI50 (NCI-H226) | GI50 (OVCAR-8) | GI50 (LOX IMVI) | GI50 (MDA-N) | GI50 (SF-295) | GI50 (OVCAR-3)
1 | CCSc1cc2c(cc1O)CC[C@@H]1[C@@H]2CC[C@]2(C)[C@@H](O)CC[C@@H]12 | 15.1 µM (inactive) | 10.8 µM (inactive) | 6.68 µM (inactive) | 8.11 µM (inactive) | 4.88 µM (inactive) | 15.6 µM (inactive) | 15.2 µM (inactive) | 24.5 µM (inactive) | 13.9 µM (inactive) | 11.3 µM (inactive) | 27.1 µM (inactive) | 21.5 µM (inactive) | 17.7 µM (inactive) | 1.98 µM (inactive) | 15 µM (inactive) | 13.3 µM (inactive) | 10.8 µM (inactive) | 2.67 µM (inactive) |  | 
2 | CN1C/C(=C\c2ccc(Cl)cc2)C(=O)/C(=C/c2ccc(Cl)cc2)C1 | 0.443 µM (active) | 2.69 µM (inactive) | 1.17 µM (inactive) | 0.774 µM (active) | 0.323 µM (active) | 1.55 µM (inactive) | 0.635 µM (active) | 2.54 µM (inactive) | 2.33 µM (inactive) | 3.15 µM (inactive) | 8.75 µM (inactive) | 0.834 µM (active) | 0.771 µM (active) | 1.72 µM (inactive) | 4.45 µM (inactive) | 0.232 µM (active) | 0.237 µM (active) | 0.861 µM (active) | 0.667 µM (active) | 1.63 µM (inactive)
3 | CCOP(=O)(CCCC(O)CNc1cc(Cl)nc(N)n1)OCC (stereo unspecified) | > 100 µM (inactive) | > 100 µM (inactive) | > 100 µM (inactive) | > 100 µM (inactive) | > 100 µM (inactive) | > 100 µM (inactive) | > 100 µM (inactive) | > 100 µM (inactive) | > 100 µM (inactive) | > 100 µM (inactive) | > 100 µM (inactive) | > 100 µM (inactive) | > 100 µM (inactive) | > 100 µM (inactive) | > 100 µM (inactive) | > 100 µM (inactive) | > 100 µM (inactive) | > 100 µM (inactive) | > 100 µM (inactive) | > 100 µM (inactive)
4 | CC(=O)Nc1ccc(/C=C2/NC(=S)N(/C=C3\C(=O)Oc4ccccc4C3=O)C2=O)cc1 | > 100 µM (inactive) | 77.6 µM (inactive) | 35.6 µM (inactive) | 45.2 µM (inactive) | 39.3 µM (inactive) | 87.5 µM (inactive) | 15.8 µM (inactive) | 94 µM (inactive) | 43.2 µM (inactive) | > 100 µM (inactive) | 55.8 µM (inactive) | > 100 µM (inactive) | 94.6 µM (inactive) | 75.5 µM (inactive) | > 100 µM (inactive) | 38.6 µM (inactive) | > 100 µM (inactive) | 52 µM (inactive) | 49.8 µM (inactive) | 24 µM (inactive)
5 | COC(=O)/C=C(\C)C(=O)N(C)c1ccccc1I | > 100 µM (inactive) | > 100 µM (inactive) | > 100 µM (inactive) | > 100 µM (inactive) | 94 µM (inactive) | > 100 µM (inactive) | 76.9 µM (inactive) | > 100 µM (inactive) | > 100 µM (inactive) | > 100 µM (inactive) |  | > 100 µM (inactive) | > 100 µM (inactive) | > 100 µM (inactive) | > 100 µM (inactive) | > 100 µM (inactive) | > 100 µM (inactive) | > 100 µM (inactive) | > 100 µM (inactive) | > 100 µM (inactive)
6 | N#C/C=C1\C=CC(O)C(O)C1OC1OC(CO)C(O)C(O)C1O (stereo unspecified) | > 100 µM (inactive) | > 100 µM (inactive) | > 100 µM (inactive) | > 100 µM (inactive) | > 10 µM (inactive) | > 100 µM (inactive) | > 100 µM (inactive) | > 100 µM (inactive) | > 100 µM (inactive) | > 100 µM (inactive) | > 100 µM (inactive) | > 100 µM (inactive) | > 100 µM (inactive) | > 100 µM (inactive) |  | > 100 µM (inactive) | > 100 µM (inactive) | > 100 µM (inactive) | > 100 µM (inactive) | > 100 µM (inactive)
7 | Cc1cc(/N=C/c2ccc(N(C)C)cc2)n(-c2ccccc2)n1 | 91.4 µM (inactive) | 40.2 µM (inactive) | 23.9 µM (inactive) | 16.7 µM (inactive) | 19.1 µM (inactive) | 26.1 µM (inactive) | 40.6 µM (inactive) | 35.6 µM (inactive) | 20.1 µM (inactive) | > 100 µM (inactive) | 46.8 µM (inactive) | 44.4 µM (inactive) | 28.4 µM (inactive) | 4.4 µM (inactive) | 50.5 µM (inactive) | 78 µM (inactive) | 48.3 µM (inactive) | 5.86 µM (inactive) | 30.8 µM (inactive) | 9.16 µM (inactive)
